From patent publication US10519446B2, “Organic compounds to treat hepatitis B virus” (priority 2013, dated 2019) come the findings set out here.

The nature of data set [1]: Serum stability of siRNAs with 3′ end caps in mouse serum. It is filed as in vitro ADME. Conditions: 100% mouse serum; 37° C.; up to 24 h; gel, SYBR gold.
The nature of data set [2]: Serum stability of siRNAs with 3′ end caps in human serum. It is filed as in vitro ADME. To be noted: 100% human serum; 37° C.; up to 24 h; gel, SYBR gold.
The next data set relates to FVII (Factor VII). As to the kind of experiment: RNA interference against FVII by 19-mer siRNAs with 3′ end caps (FIG. 2). Set-up: species or system mouse. To be noted: mF7-III 19-mer blunt-ended, A12S17.
The subject of another data set is HBV. Description: Efficacy of HBV RNAi agents in HepG2.2.15 cells in vitro (sAg KD). Type of data set: cell-based, Hepatitis B Virus. To be noted: for Max % KD, EXPERIMENT 1 / Max % KD, EXPERIMENT 2: percent knockdown; for Percent sAg remaining at maximum knockdown: percent residual gene activity. Here is the method: Table 9. Efficacy of HBV RNAi agents.
The efficacy of various HBV RNAi agents was tested in HepG2.2.15 cells in vitro. 10 μM was used. […] It is noted that, due to the nature of the HepG2.2.15 cell line, it is difficult to achieve greater than 50% knockdown.

Setting [3] is: Experiment 2, HepG2.2.15 cells, nM printed only at the Experiment 1 and AVERAGE EC50 heads, read-out: EC50, EXPERIMENT 2.
[4] abbreviates: HepG2.2.15 cells in vitro, Experiment 1, read-out: EC50 (nM), EXPERIMENT 1.
Setting [5] is: average of Experiments 1 and 2, read-out: EC50 (nM), AVERAGE.

Like-named read-outs stand apart in the source and are kept apart here.

For `c1ccc(-c2ccccc2)cc1` [Biphenyl], the “stability in mouse serum” value in data set [1] is “increased stability”. The “stability in human serum” value in data set [2] was “increased stability”. The “RNA interference against FVII” value with FVII (Factor VII) was “allow the RNAi agent to perform RNA interference”.

The term EC50 denotes the concentration at which the effect is half-maximal. For “8: "HBV RNAi agents numbered 1 to 10"; "The RNAi agents used are listed in Table 8E" (18-mer format) (sense CAGCAAUGUCAACGACCGA; antisense UCGGUCGUUGACAUUGCUG; chemistry not given here) [Number 8]”, the “Max % KD, EXPERIMENT 1” value in the data set on HBV (Experiment 1, HepG2.2.15 cells) turned out to be 37.5%. The “Percent sAg remaining at maximum knockdown” value (from here on “Percent sAg remaining”) turned out to be 62.5% in the data set on HBV (Experiment 1, HepG2.2.15 cells) and 42.2% with HBV (Experiment 2, HepG2.2.15 cells). Moreover, the results for the EC50 with HBV (setting [3]), in the data set with HBV (setting [4]) and in the data set on HBV (setting [5]) were 0.177 nM, 0.025 nM and 0.1 nM, respectively. Besides, the “Max % KD, EXPERIMENT 2” value in the data set on HBV (Experiment 2, HepG2.2.15 cells) worked out at 57.8%. In addition, in the data set with HBV (average of Experiments 1 and 2), the “Max % KD, AVERAGE” value came out at 47.65%.

On to “3: "HBV RNAi agents numbered 1 to 10"; "The RNAi agents used are listed in Table 8E" (18-mer format) (sense CCAUACUGCGGAACUCCUA; antisense UAGGAGUUCCGCAGUAUGG; chemistry not given here) [Number 3]”, for which the “Max % KD, EXPERIMENT 1” value with HBV (Experiment 1, HepG2.2.15 cells) came to 49.8%. Also, the “Percent sAg remaining” value in the data set on HBV (Experiment 1, HepG2.2.15 cells) is recorded as 50.2%; with HBV (Experiment 2, HepG2.2.15 cells), 61.3%. In addition, the half-maximal effective concentration (EC50) with HBV (setting [3]) is 0.016 nM; in the data set on HBV (setting [4]), 0.111 nM; with HBV (setting [5]) it was 0.06 nM. In the data set with HBV (Experiment 2, HepG2.2.15 cells), the “Max % KD, EXPERIMENT 2” value was determined as 38.7%. For the same compound, in the data set on HBV (average of Experiments 1 and 2), the “Max % KD, AVERAGE” value is reported as 44.25%.

As to “7: "HBV RNAi agents numbered 1 to 10"; "The RNAi agents used are listed in Table 8E" (18-mer format) (sense GCUGUAGGCAUAAAUUGGU; antisense ACCAAUUUAUGCCUACAGC; chemistry not given here) [Number 7]”, in the data set with HBV (Experiment 1, HepG2.2.15 cells), the “Max % KD, EXPERIMENT 1” value came out at 41.5%. In addition, the “Percent sAg remaining” value is 58.5% in the data set with HBV (Experiment 1, HepG2.2.15 cells) and 59.7% in the data set with HBV (Experiment 2, HepG2.2.15 cells). For the same compound, the EC50 in the data set on HBV (setting [3]) was found to be 0.409 nM; in the data set with HBV (setting [4]), 0.038 nM; with HBV (setting [5]) it was 0.22 nM. For the same compound, in the data set with HBV (Experiment 2, HepG2.2.15 cells), the “Max % KD, EXPERIMENT 2” value stood at 40.3%. Also, the “Max % KD, AVERAGE” value in the data set with HBV (average of Experiments 1 and 2) worked out at 40.9%.

For “6: "HBV RNAi agents numbered 1 to 10"; "The RNAi agents used are listed in Table 8E" (18-mer format) (sense GGCUGUAGGCAUAAAUUGG; antisense CCAAUUUAUGCCUACAGCC; chemistry not given here) [Number 6]”, the “Max % KD, EXPERIMENT 1” value in the data set with HBV (Experiment 1, HepG2.2.15 cells) is 37.3%. Further, the “Percent sAg remaining” value in the data set with HBV (Experiment 1, HepG2.2.15 cells) is 62.7%; with HBV (Experiment 2, HepG2.2.15 cells), 61%. Besides, the 50% effective concentration (EC50) stood at 0.13 nM in the data set on HBV (setting [3]), 0.008 nM with HBV (setting [4]) and 0.07 nM with HBV (setting [5]). The “Max % KD, EXPERIMENT 2” value in the data set on HBV (Experiment 2, HepG2.2.15 cells) stood at 39%. Also, the “Max % KD, AVERAGE” value in the data set on HBV (average of Experiments 1 and 2) is given as 38.15%.

With `OCCOCCOCCO` [Triethylene glycol], the “RNA interference against FVII” value with FVII (Factor VII) is “allow the RNAi agent to perform RNA interference”.

On to “4: "HBV RNAi agents numbered 1 to 10"; "The RNAi agents used are listed in Table 8E" (18-mer format) (sense GAGGCUGUAGGCAUAAAUU; antisense AAUUUAUGCCUACAGCCUC; chemistry not given here) [Number 4]”, for which, in the data set with HBV (Experiment 1, HepG2.2.15 cells), the “Max % KD, EXPERIMENT 1” value is listed as 43.3%. For the same compound, the “Percent sAg remaining” value in the data set on HBV (Experiment 1, HepG2.2.15 cells) amounted to 56.7%; with HBV (Experiment 2, HepG2.2.15 cells) it was 51.4%. The figures for the half-maximal effective concentration (EC50) with HBV (setting [3]), with HBV (setting [4]) and in the data set with HBV (setting [5]) were 0.056 nM, 0.017 nM and 0.04 nM, respectively. In the data set on HBV (Experiment 2, HepG2.2.15 cells), the “Max % KD, EXPERIMENT 2” value was 48.6%. Besides, the “Max % KD, AVERAGE” value in the data set with HBV (average of Experiments 1 and 2) is reported as 45.95%.

With “9: "HBV RNAi agents numbered 1 to 10"; "The RNAi agents used are listed in Table 8E" (18-mer format) (sense GGAGGCUGUAGGCAUAAAU; antisense AUUUAUGCCUACAGCCUCC; chemistry not given here) [Number 9]”, in the data set on HBV (Experiment 1, HepG2.2.15 cells), the “Max % KD, EXPERIMENT 1” value was 48.8%. The “Percent sAg remaining” value in the data set with HBV (Experiment 1, HepG2.2.15 cells) was determined as 51.2%; in the data set on HBV (Experiment 2, HepG2.2.15 cells) it was 50%. Also, the EC50 in the data set with HBV (setting [3]) turned out to be 0.67 nM; in the data set with HBV (setting [4]), 0.131 nM; in the data set with HBV (setting [5]), 0.4 nM. In the data set with HBV (Experiment 2, HepG2.2.15 cells), the “Max % KD, EXPERIMENT 2” value is 50%. Also, the “Max % KD, AVERAGE” value in the data set on HBV (average of Experiments 1 and 2) is reported as 49.4%.

In the case of “11: "An 18-mer ... with the sequences of Number 11E in Table 10"; "an additional HBV RNAi agent, HBV 279" (sense GGUUCUUCUGGAUUAUCAA; antisense UUGAUAAUCCAGAAGAACC; chemistry not given here)”, the “Max % KD, EXPERIMENT 1” value in the data set with HBV (Experiment 1, HepG2.2.15 cells) is given as 65.39%. In addition, the “Percent sAg remaining” value was 34.61% in the data set on HBV (Experiment 1, HepG2.2.15 cells) and 46% with HBV (Experiment 2, HepG2.2.15 cells). Also, the EC50 is 0.105 nM in the data set with HBV (setting [3]), 0.039 nM in the data set with HBV (setting [4]) and 0.07 nM in the data set with HBV (setting [5]). Also, the “Max % KD, EXPERIMENT 2” value with HBV (Experiment 2, HepG2.2.15 cells) stood at 54%. In addition, the “Max % KD, AVERAGE” value in the data set on HBV (average of Experiments 1 and 2) stood at 59.695%.

On to “12: "Twelve of the best HBV RNAi agents identified are listed below, in various formats, in Tables 8A-8E, 9 and 10" (sense GGACUUCUCUCAAUUUUCU; antisense AGAAAAUUGAGAGAAGUCC; chemistry not given here) [Number 12]”, for which, in the data set on HBV (Experiment 1, HepG2.2.15 cells), the “Max % KD, EXPERIMENT 1” value was 36.89% and the “Percent sAg remaining” value is 63.11%. The EC50 with HBV (setting [4]) was determined as 0.093 nM. Further, in the data set with HBV (average of Experiments 1 and 2), the “Max % KD, AVERAGE” value amounted to 36.89%. In the data set on HBV (setting [5]), the 50% effective concentration (EC50) came out at 0.093 nM.

In the case of `OCCOCCOCCO` [glycol, triethylene glycol], the “stability in mouse serum” value in data set [1] is reported as “increased stability”. The “stability in human serum” value in data set [2] is “increased stability”.

Take `C1C2CC3CC1CC(C2)C3` [Adamantane]: the “RNA interference against FVII” value in the data set on FVII (Factor VII) was “allow the RNAi agent to perform RNA interference”.

For the compound “10: "HBV RNAi agents numbered 1 to 10"; "The RNAi agents used are listed in Table 8E" (18-mer format) (sense GAGAUUAGGUUAAAGGUCU; antisense AGACCUUUAACCUAAUCUC; chemistry not given here) [Number 10]”, the “Max % KD, EXPERIMENT 1” value in the data set on HBV (Experiment 1, HepG2.2.15 cells) is on record as 57.3%. The “Percent sAg remaining” value with HBV (Experiment 1, HepG2.2.15 cells) came to 42.7%; in the data set with HBV (Experiment 2, HepG2.2.15 cells), 49.1%. Further, the concentration giving a half-maximal response (EC50) in the data set with HBV (setting [3]) was found to be 0.437 nM; in the data set on HBV (setting [4]) it was 0.066 nM; in the data set with HBV (setting [5]) it was 0.25 nM. The “Max % KD, EXPERIMENT 2” value in the data set with HBV (Experiment 2, HepG2.2.15 cells) is 50.9%. In addition, the “Max % KD, AVERAGE” value in the data set with HBV (average of Experiments 1 and 2) is recorded as 54.1%.

Consider `C[C@H](CCC(=O)O)[C@H]1CC[C@H]2[C@@H]3CC[C@@H]4C[C@H](O)CC[C@]4(C)[C@H]3CC[C@]12C` [lithochol, lithocholic acid], for which the “stability in mouse serum” value in data set [1] is reported as “increased stability”. Further, the “stability in human serum” value in data set [2] is given as “less stable”.

Turning to “5: "One sequence used was designated siHBV_1599_18mer_CAM, and corresponds to Number 5 in Table 8E" (sense CCGUGUGCACUUCGCUUCA; antisense UGAAGCGAAGUGCACACGG; chemistry not given here)”, in the data set with HBV (Experiment 1, HepG2.2.15 cells), the “Max % KD, EXPERIMENT 1” value is 41.3%. Moreover, the “Percent sAg remaining” value in the data set with HBV (Experiment 1, HepG2.2.15 cells) was found to be 58.7%; in the data set with HBV (Experiment 2, HepG2.2.15 cells), 62.2%. Moreover, the EC50 amounted to 0.013 nM in the data set on HBV (setting [3]), 0.127 nM in the data set with HBV (setting [4]) and 0.07 nM in the data set with HBV (setting [5]). Moreover, the “Max % KD, EXPERIMENT 2” value in the data set on HBV (Experiment 2, HepG2.2.15 cells) is 37.8%. In addition, in the data set with HBV (average of Experiments 1 and 2), the “Max % KD, AVERAGE” value worked out at 39.55%.
